Laboratory results published in ChEMBL document CHEMBL3875146, “Mycobacterium Tuberculosis (MTB) GyrB inhibitors: An attractive approach for developing novel drugs against TB” (Eur J Med Chem, 2016).
Converted amounts (≈) assume the structure as drawn.

Legend:
[1] = system: Mycobacterium tuberculosis; experiment: Antimycobacterial activity against Mycobacterium tuberculosis; format: functional
[2] = system: Mycobacterium tuberculosis; experiment: Inhibition of Mycobacterium tuberculosis topoisomerase-1 using DNA as substrate preincubated for 15 mins followed by substrate addition measured after 30 mins by ethidium-bromide based agarose gel electrophoresis
[3] = target: DNA gyrase subunit A/DNA gyrase subunit B (Mycobacterium tuberculosis (strain ATCC 25618 / H37Rv)) (UniProt P9WG45+P9WG47); experiment: (§1) Inhibition of Mycobacterium tuberculosis DNA gyrase assessed as inhibition of DNA supercoiling activity using relaxed pBR322 as substrate incubated for 30 mins by ethidium bromide staining based agarose gel electrophoresis
[4] = target: T1, DNA gyrase subunit A/DNA gyrase subunit B (Mycobacterium tuberculosis (strain ATCC 25618 / H37Rv), UniProt P9WG45+P9WG47); experiment: Inhibition of Mycobacterium tuberculosis DNA gyrase assessed as inhibition of DNA supercoiling activity using relaxed pBR322 as substrate incubated for 30 mins in presence of ATP by ethidium bromide staining based agarose gel electrophoresis
[5] = system: Mycobacterium tuberculosis; experiment: Antimycobacterial activity against Mycobacterium tuberculosis measured after 5 days by microplate alamar blue assay; format: functional; conditions: 120 h
[6] = target: DNA gyrase subunit B (Mycobacterium smegmatis) (UniProt P0C559); experiment: Inhibition of Mycobacterium smegmatis DNA gyrase-B ATPase activity after 30 mins by ammonium molybdate/malachite green-based phosphate detection assay; conditions: Mycolicibacterium smegmatis
[7] = Inhibition of Escherichia coli DNA gyrase assessed as inhibition of DNA supercoiling activity using relaxed pBR322 as substrate incubated for 30 mins in presence of ATP by ethidium bromide staining based agarose gel electrophoresis
[8] = Inhibition of Staphylococcus aureus WCUH29 DNA gyrase expressed in Escherichia coli Rosetta 2 (DE3) pLysS cells assessed as inhibition of DNA supercoiling activity using relaxed pBR322 as substrate incubated for 30 mins in presence of ATP by ethidium bromide staining based agarose gel electrophoresis
[9] = target: T1, DNA gyrase subunit A/DNA gyrase subunit B; experiment: as §1
[10] = target: DNA gyrase subunit B (Mycobacterium smegmatis, UniProt P0C559); experiment: Inhibition of Mycobacterium smegmatis DNA gyrase B expressed in BL21(DE3)pLysS cells assessed as inhibition of […] activity in presence of ATP measured after 30 mins by malachite green dye based assay; format: cell-based, Mycolicibacterium smegmatis
[11] = Cytotoxicity against mouse RAW264.7 cells assessed as inhibition of cell viability at 100 uM measured after 72 hrs by MTT assay relative to control; format: toxicity; conditions: read-out: INH
[12] = system: Escherichia coli; experiment: Antimicrobial activity against Escherichia coli; format: functional

Sequence of DNA gyrase subunit B (P0C559 whole entry): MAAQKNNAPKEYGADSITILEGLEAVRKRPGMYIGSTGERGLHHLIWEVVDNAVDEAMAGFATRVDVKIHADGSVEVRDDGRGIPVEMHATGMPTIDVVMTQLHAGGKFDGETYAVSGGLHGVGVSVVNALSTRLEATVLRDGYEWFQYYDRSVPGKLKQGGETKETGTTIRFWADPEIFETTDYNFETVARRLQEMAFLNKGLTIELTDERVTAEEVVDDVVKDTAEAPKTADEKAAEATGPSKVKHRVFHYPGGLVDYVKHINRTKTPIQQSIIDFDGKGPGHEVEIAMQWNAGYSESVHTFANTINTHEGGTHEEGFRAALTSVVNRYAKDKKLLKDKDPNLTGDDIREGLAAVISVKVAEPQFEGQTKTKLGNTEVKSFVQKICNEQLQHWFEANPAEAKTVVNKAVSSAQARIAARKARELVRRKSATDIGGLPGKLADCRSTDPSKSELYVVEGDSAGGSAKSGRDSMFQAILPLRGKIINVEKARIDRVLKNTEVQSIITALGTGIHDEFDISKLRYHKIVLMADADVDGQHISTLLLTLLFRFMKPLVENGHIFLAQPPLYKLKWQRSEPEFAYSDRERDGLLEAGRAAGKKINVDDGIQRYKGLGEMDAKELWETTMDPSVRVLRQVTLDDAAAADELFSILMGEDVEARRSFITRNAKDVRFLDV
T1 sequence (P9WG45 whole entry): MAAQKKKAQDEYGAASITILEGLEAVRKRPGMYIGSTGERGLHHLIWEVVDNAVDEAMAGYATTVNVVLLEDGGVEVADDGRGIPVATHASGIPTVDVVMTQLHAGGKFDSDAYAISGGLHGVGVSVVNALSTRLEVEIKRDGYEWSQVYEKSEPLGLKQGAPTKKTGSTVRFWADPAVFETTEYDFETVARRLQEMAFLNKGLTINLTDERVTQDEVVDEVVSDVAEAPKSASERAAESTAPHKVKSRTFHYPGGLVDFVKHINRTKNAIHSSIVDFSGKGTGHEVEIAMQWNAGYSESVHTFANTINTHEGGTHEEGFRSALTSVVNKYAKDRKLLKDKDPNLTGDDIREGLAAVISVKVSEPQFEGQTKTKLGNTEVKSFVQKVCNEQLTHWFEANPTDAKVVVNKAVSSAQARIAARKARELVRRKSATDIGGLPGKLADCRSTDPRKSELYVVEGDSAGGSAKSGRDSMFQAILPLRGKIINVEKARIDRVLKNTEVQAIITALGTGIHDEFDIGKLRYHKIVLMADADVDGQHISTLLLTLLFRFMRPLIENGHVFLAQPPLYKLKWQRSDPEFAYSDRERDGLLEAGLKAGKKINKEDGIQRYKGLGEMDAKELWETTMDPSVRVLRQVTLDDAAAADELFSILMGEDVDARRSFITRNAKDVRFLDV
T1 sequence (P9WG47 whole entry): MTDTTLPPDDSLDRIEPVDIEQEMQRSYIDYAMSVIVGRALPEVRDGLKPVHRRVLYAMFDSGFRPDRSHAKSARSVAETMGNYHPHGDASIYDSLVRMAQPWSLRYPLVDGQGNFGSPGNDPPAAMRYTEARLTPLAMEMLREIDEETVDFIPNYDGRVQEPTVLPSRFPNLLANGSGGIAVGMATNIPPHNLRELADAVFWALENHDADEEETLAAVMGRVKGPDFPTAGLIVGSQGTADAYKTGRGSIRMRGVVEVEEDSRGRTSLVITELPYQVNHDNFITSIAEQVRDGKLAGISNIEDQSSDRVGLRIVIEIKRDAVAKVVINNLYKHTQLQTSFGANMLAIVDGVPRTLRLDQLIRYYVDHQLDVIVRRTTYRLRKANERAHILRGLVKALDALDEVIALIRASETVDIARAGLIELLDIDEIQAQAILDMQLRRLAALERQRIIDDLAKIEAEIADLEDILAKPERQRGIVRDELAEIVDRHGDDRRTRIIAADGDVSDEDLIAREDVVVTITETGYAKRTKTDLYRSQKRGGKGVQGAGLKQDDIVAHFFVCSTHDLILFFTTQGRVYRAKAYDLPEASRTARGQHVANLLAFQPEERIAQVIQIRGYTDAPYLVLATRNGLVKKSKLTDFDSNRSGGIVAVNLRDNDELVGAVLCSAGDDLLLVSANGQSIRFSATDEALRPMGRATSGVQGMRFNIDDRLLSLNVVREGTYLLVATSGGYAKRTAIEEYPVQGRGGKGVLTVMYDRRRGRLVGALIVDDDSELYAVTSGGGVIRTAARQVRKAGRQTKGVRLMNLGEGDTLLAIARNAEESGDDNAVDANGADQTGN
Sequence of DNA gyrase subunit B (Mycobacterium smegmatis) (P0C559 2-675 limits assumed): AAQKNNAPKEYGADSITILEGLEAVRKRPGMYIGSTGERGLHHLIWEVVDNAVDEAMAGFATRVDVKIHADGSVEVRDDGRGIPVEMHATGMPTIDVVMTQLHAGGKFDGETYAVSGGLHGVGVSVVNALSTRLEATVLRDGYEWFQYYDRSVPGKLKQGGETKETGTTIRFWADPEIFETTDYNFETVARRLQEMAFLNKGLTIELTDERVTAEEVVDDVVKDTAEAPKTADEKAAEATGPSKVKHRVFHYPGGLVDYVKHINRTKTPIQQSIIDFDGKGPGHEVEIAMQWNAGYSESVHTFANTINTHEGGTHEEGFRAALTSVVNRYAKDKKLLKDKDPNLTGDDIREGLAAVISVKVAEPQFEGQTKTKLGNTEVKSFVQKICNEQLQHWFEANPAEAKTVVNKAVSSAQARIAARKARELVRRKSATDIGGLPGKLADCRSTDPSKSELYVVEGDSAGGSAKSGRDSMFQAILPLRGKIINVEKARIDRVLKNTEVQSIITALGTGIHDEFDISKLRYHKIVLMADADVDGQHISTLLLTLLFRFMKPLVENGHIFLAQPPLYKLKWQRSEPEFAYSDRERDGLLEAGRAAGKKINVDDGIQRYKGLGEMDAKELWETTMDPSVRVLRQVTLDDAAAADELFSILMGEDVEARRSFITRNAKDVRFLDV

For `O=C1CSc2ccc(CNC3CCN(CC4CCN5C(=O)C=CC6N=CC(=O)N4C65)CC3)nc2N1` (stereo unspecified), the MIC [1] was 300 to 2000 µg/mL (≈ 605 to 4040 µM).
For `O=C1COc2ccc(CNC3CCN(CC4CCc5c(F)ccc6ccc(=O)n4c56)CC3)nc2N1` (stereo unspecified), the MIC [1] was 300 to 2000 µg/mL (≈ 628 to 4190 µM).
`Cn1ccc2cc(-c3cnc4nc(-c5ccccc5)cnc4c3)ccc21` gave an INH [2] of 0.1 µM.
With `Clc1ccc(/N=N/c2cnc3cc4ccccc4cc3n2)cc1` the INH [3] was 12 µM.
`Cc1cc(O)c2c(c1)C(=O)C=C(c1c(C)cc(O)c3c1C(=O)C=CC3=O)C2=O` [NEODIOSPYRIN] gave an IC50 [4] of 50 µM.
Compound `Clc1cccc(-c2cnc3cc(-c4ccc5cn[nH]c5c4)cnc3n2)c1` has an INH [2] of 7.5 µM.
In the case of `CCNC(=O)Nc1nc2cc(-c3cncnc3)c(OCC3CCOCC3)nc2s1`, the MIC [5] is reported as 60 µg/mL (≈ 145 µM) and the INH [6] is reported as 2.5 nM.
For `CC1=CC(=O)c2ccccc2C1=O` [MENADIONE], the IC50 [4] was over 200 µM.
For `Brc1c2ccccc2c(Br)c2nc(-c3ccco3)c(-c3ccco3)nc12`, the INH [2] was 0.1 µM.
For `Cc1cc2c(c(O)c1-c1c(C)cc(O)c3c1C(=O)C=CC3=O)C(=O)C=CC2=O`, the IC50 [4] was 100 µM.
In the case of `Cc1cc(O)c2c(c1)C(=O)C=CC2=O` [RAMENTACEONE], the IC50 [4] is reported as 30 µM, the IC50 [7] is reported as 30 µM and the IC50 [8] is reported as 60 µM.
Compound `O=C1COc2ccc(CNC3CCN(CCn4c(=O)ccc5cc(F)ccc54)CC3)nc2N1` has an MIC [1] of 300 to 2000 µg/mL (≈ 664 to 4430 µM).
Compound `Cc1cc(O)c2c(c1)C(=O)C(c1c(C)cc3c(c1O)C(=O)C=CC3=O)=CC2=O` [DIOSPYRIN] has an IC50 [4] of 15 µM, an IC50 [7] of 4 µM and an IC50 [8] of 8 µM.
For `Cc1cc(O)c2c(c1)C(O)CCC2=O` (stereo unspecified), the IC50 [4] was over 200 µM.
With `Cc1ccc(-c2cnc3cc(-c4ccc5[nH]ccc5c4)cnc3n2)cc1` the INH [2] was 0.1 µM.
With `c1ccc(N2CCC(Cc3nc4cc5ccccc5cc4nc3CN3CCN(c4ccccn4)CC3)CC2)nc1` the INH [2] was 7.5 µM.
For `COc1ccc2ncc(=O)n(-c3cnc4c(c3)CCC(NCc3ccc5c(n3)NC(=O)CO5)C4)c2n1` (stereo unspecified), the MIC [1] was 300 to 2000 µg/mL (≈ 618 to 4120 µM).
`O=C1C(=O)N(CCN2CCN(NCc3ccc(Cl)cc3Cl)CC2)c2ccc(F)cc21` showed an IC50 [9] of 24.2 µM, an IC50 [10] of 43 µM and a cytotoxicity at 72 h, 100 µM [11] of 13.9%.
Compound `CCCCCCN1CCC(CCC(O)c2ccnc3ccc(OC)cc23)C(CC)C1` (stereo unspecified) has an MIC [12] of 4000 µg/mL (≈ 9690 µM).
In the case of `Fc1ccc(/N=N/c2cnc3cc4ccccc4cc3n2)cc1`, the INH [3] is reported as 50 µM.
`O=C1C(=O)N(CCN2CCN(NCc3cccc(Cl)c3Cl)CC2)c2ccccc21` showed an IC50 [9] of 4.8 µM, an IC50 [10] of 21.7 µM and a cytotoxicity at 72 h, 100 µM [11] of 16.8%.
`O=C1C(=O)N(CCN2CCN(NCc3cccc(Cl)c3Cl)CC2)c2ccc(Cl)cc21` showed an IC50 [9] of 25.6 µM, an IC50 [10] of 43.2 µM and a cytotoxicity at 72 h, 100 µM [11] of 17.4%.
Compound `COc1ccc2c(c1)C(=O)C(=O)N2CCN1CCN(NCc2ccccc2)CC1` has an IC50 [9] of 48.2 µM, an IC50 [10] of 92 µM and a cytotoxicity at 72 h, 100 µM [11] of 21.6%.
